Source: patent publication US20090196950A1, “METHODS OF FEEDING PIGS AND PRODUCTS COMPRISING BENEFICIAL FATTY ACIDS” (Monsanto Company, priority 2008, published 2009)

Test: 35 day feeding study in pigs: fatty acid composition of pork tissues (belly, loin, ham, skin) by GC-FID of FAMEs
Type: in vivo
Method: A 35 day study was conducted to determine whether pigs fed a diet containing SDA could produce meat with improved fatty acid profiles including increased levels of SDA, EPA, and DHA.
A control diet (Treatment 1) formulated to meet or exceed NRC (1998) nutrient requirements for pigs in the late finishing phase (approximately 80-120 kg BW containing 1.14% corn oil and no added SDA ethyl ester (70% w/w SDA) were fed ad libitum during an acclimation period of at least 1 week duration. Ethoxyquin was included in all diets as an antioxidant at a concentration of 150 parts per million (0.015%, as-fed basis), the maximum level allowed by FDA regulation in animal feeds. The same control diet was fed ad libitum to the control pigs (pen receiving Treatment 1) throughout a 35-day test period. Four test diets (Treatment 2, 3, 4, and 5) with SDA ethyl ester substituted for corn oil to provide 0.2, 0.4, 0.6 and 0.8% (w/w SDA active ingredient, as-is basis) were fed ad libitum to one pen of four pigs throughout the 35-day test period Table 4). All diets were fed in meal form.
All pigs were individually weighed at initiation of the acclimation and test period, and immediately prior to slaughter. Feed consumption per pen was recorded. […] Live weights prior to slaughter and hot carcass weights were recorded. […] Prior to removing the sample for sensory and fatty and proximate analysis from the belly the firmness of the belly was evaluated using a flop test. At 24 hr postmortem fat thickness (10th rib), loin eye area (10th rib), visual color, firmness and marbling, Minolta color (L*a*b*), pH, and drip loss were measured. […]
In order to evaluate the fatty acid composition of pig tissues (loin, ham, skin, and belly), samples were stored at −80° C. until evaluation. […] Resultant fatty acid methyl esters (FAME's) were separated by capillary gas chromatography (GC) and detected by flame ionization detector (FID). […] Quantification was achieved by using an internal standard (c15:0 triacylglyceride (TAG) for pig tissue samples and c17:0 TAG for diet samples). […]

In the case of `CC/C=C\C/C=C\C/C=C\C/C=C\CCCCC(=O)O` [SDA, stearidonic acid], the “enrichment of SDA, ETA, and EPA in belly, loin, ham, and skin tissues” value (0.2-0.8% SDA in feed, 35 days) is reported as “enriched in belly, loin, ham, and skin tissues in a dose dependent manner”, the “levels of SDA, ETA, EPA, DPA in belly, loin, ham and skin tissues and DHA in ham tissue as compared to the control” value (SDA supplementation, 35 days) is reported as “higher levels” and the “omega 3 fatty acid enrichment in belly, loin, ham and skin tissues as compared to the control” value (pigs fed SDA for the last 35 days prior to slaughter) is reported as “significant increase”.
